According to US9452177B2, “Vitamin D compounds and methods for reducing ocular hypertension (OHT)” (Wisconsin Alumni Research Foundation, priority 2008, dated 2016):
Entries after “also recorded” stand apart in the source; their conditions may differ.

Experiments:
[1] = system: eyes of ocular normotensive cynomolgus monkeys; assay: Intraocular pressure (IOP) by Goldmann applanation tonometry after 5 twice-daily unilateral topical treatments; format: in vivo, cynomolgus monkeys (Macaca fascicularis); conditions: Example 1; for rank order of ocular hypotensive effect: 5 uniocular topical treatments at the same dose; for IOP after the 5th treatment / IOP prior to the 5th treatment compared with baseline: AGR 5 μg n=4, 2MD 6 μg n=8; for IOP prior to the 5th treatment compared with baseline: both treated and control eye
Description: Ocular normotensive adult cynomolgus monkeys (Macaca fascicularis), of either sex, weighing 3-7 kg were anesthetized with i.m. ketamine HCl (3-25 mg/kg, supplemented with 1-10 mg/kg) for IOP and topical drop administration. All monkeys were free of any ocular abnormalities according to slit lamp biomicroscopy at the time measurements were taken. The monkeys were provided by the Primate Center at the University of Wisconsin-Madison. All experiments were done in accordance with the ARVO Statement on the Use of Animals in Ophthalmic and Vision Research.
(§1) The intraocular pressure (IOP) was determined with a “minified” Goldmann applanation tonometer [Kaufman, 1980] using HALF AND HALF™ creamer solution (Borden) as the tear film indicator [Croft, 1997] with the monkey lying prone in a head holder and the eyes positioned 4 to 8 cm above the heart. All monkeys were examined by slit-lamp before the first IOP measurement in each protocol. For each eye, two or three IOP measurements were averaged as a baseline.
Under ketamine anesthesia (KETAJECT™, Phoenix Pharmaceutical, St Joseph, Mo. (3-25 mg/kg i.m., supplemented with 1-10 mg/kg i.m. as needed) baseline IOP was determined, usually between 7:30 and 9 am (2 readings, 5 minutes apart; if IOP baseline measurements were not within 2-3 mm Hg of each other, a 3rd reading was taken 5 min later). Baseline IOP was at least 15 mmHg if possible. A baseline blood sample was taken from the femoral artery or vein, or sometimes the brachial vein (1-2 ml). This was allowed to clot and then spun down (3000 rpm for 10 min, Damon/IEC NH-SII centrifuge) and the serum removed and frozen at −20 C for no more than 1 week. Baseline systolic, diastolic and mean arterial pressure as well as heart rate were recorded with the Dinamap monitor from a cuff placed around the arm or the leg.
After baseline measurements, the monkey was place supine with the eye pointing up and the eyelid held open. A 5 μl drop of test material or vehicle was delivered to opposite eyes. The eyelid was held open for at least 30 sec and the eye was maintained in the upward position for an additional 30 sec. The monkey was then returned to its cage and allowed to wake up. In the afternoon, at least 6 hours after the morning treatment, another treatment was administered. On the second day, dosing was repeated in the am and pm.
(§2) On the 3th day, prior to the 5th treatment, baseline IOP, biomicroscopy and MAP were determined. Preliminary studies indicated an effect was observed after these treatments but not after a single treatment. Following the 5th dose, IOP was measured at 1, 2, 3, 4, 5, 6, 7, 8, 12 (if possible), 24, and sometimes 48 hr. Biomicroscopy was done at 1, 3, 6, 24 and sometimes 48 hr. MAP on day 3 (some protocols) was determined at 1, 2, 3, 4, 5, 6, 7, 8, 24 and sometimes 48 hr if possible. Blood samples after the 5th treatment were collected at 6, 24, and sometimes 48 hr. For some protocols, IOP was also measured prior to each treatment; MAP was measured prior to the morning treatment; blood was collected prior to the afternoon treatment. Subsequent screening protocols will not include the MAP and blood collections and will only measure IOP at baseline and prior to and for 1-6 hr after the 5th treatment.
Adult cynomolgus monkeys (Macaca fascicularis) of either sex were anesthetized with intramuscular ketamine HCl (10 mg/kg initial, 5 mg/kg supplemental). Baseline pretreatment IOP was determined by Goldmann applanation tonometry [Kaufman, 1980] with […] used as a tear film indicator [Croft, 1997]. Two baseline IOP measurements were taken 5 minutes apart. […]

[2] = Ocular inflammation by slit-lamp biomicroscopy; format: in vivo, cynomolgus monkeys (Macaca fascicularis); conditions: Example 1; 5 topical treatments, 5 μg (2MD 6 μg)
Description: as §1, §2
Baseline pretreatment IOP was determined by Goldmann applanation tonometry [Kaufman, 1980] with […] used as a tear film indicator [Croft, 1997]. Two baseline IOP measurements were taken 5 minutes apart. Monkeys were then treated topically with 5 μl of 1,25-dihydroxyvitamin D3 (1,25-(OH)2D3) (0.1-5 μg) to one eye and vehicle (propylene glycol) to the opposite eye twice a day for 5 treatments total. […] IOP was also measured prior to the afternoon treatment. On the third day, IOP was measured prior to the morning treatment. Following the fifth treatment, IOP was measured hourly for 8 hours and, in some cases, also at 12, 24, and 48 hours. […]

ocular inflammation [2]	SMILES	rank order of ocular hypotensive effect [1]	IOP after the 5th treatment [1]	IOP prior to the 5th treatment compared with baseline [1]	IOP in treated eye compared with control eye ([1]; 5 μg (2MD 6 μg) in 5 μl propylene glycol one eye, vehicle opposite eye)	IOP in the control (vehicle, contralateral) eye after the 5th treatment ([1]; AGR 5 μg in opposite eye)
no ocular inflammation at any time-point	C=C1[C@H](O)CC(=C/C=C2\CCC[C@]3(C)[C@@H]([C@@H](C)CCCC(C)(C)O)CC[C@@H]23)C[C@H]1O [2MD, 2-methylene-19-nor-(20S)-1α,25-dihydroxyvitamin D3]	1,25(OH)2D3>2MD>AGR	gradually decreased over the next 8 hours similar to the diurnal decline seen with vehicle alone; also recorded: small drug effect at 6 and 7 hours	no different than at baseline	–	–
no ocular inflammation at any time-point	CC(CCCC(C)(C)O)C1CCC2C(=CC=C3CC(O)C(=CCCO)C(O)C3)CCCC21C (stereo not drawn) [AGR, 2-(3′-hydroxypropylidene)-19-nor-1α,25-dihydroxyvitamin D3]	1,25(OH)2D3>2MD>AGR	not significantly decreased in the treated eye except at the 3 hr time point	no different than at baseline	no difference between the eyes at any time-point	no change in IOP in the control eye
